Read-outs that look alike come from different tables or passages of the source.
Legend:
[1] = Pharmacokinetic parameters in rats (i.v. and p.o. dosing, plasma LC-MS/MS); assay type: in vivo, male Wistar rats; settings: rat; for half-life / Cmax / Tmax / bioavailability / Vd: male, Wistar, plasma
Method: In this example the pharmacokinetic parameters of Compound 1 of the invention are compared to those of a close analogue of the prior art, i.e. 1,3-dihydro-1-[2-hydroxy-5-(trifluoromethyl)phenyl]-5-(trifluoromethyl)-2H-Benzimidazol-2-one (i.e. NS1619 described WO 01/54711) herein designated the Reference Compound.
The blood samples were centrifuged at 1.300 g at 4° C. for 25 minutes and the resulting plasma samples were stored at <−15° C. pending analysis.
The compounds were dosed as clear solutions in phosphate buffer/Tween 80 (90:10) in a concentration of 3 mg/ml.
Aliquots of samples, calibrants and QC's (100 μl) were pipetted into 1.5 ml eppendorf tubes. To each tube (except matrix blank) was added 300 μl acetonitrile with internal standards. Matrix blank was added 300 μl acetonitrile without internal standard.
The tubes were shaken on a whirlimixer and then centrifuged for 25 minutes at 16.000 g at 5° C. to precipitate proteins.
An aliquot (200 μl) of the supernatant was transferred to another 1.5 ml eppendorf tube and evaporated to dryness under a gentle stream of nitrogen at 40° C. Then the samples were reconstituted in […] (initial composition).
Incorporating the data from the rat plasma analyses, the pharmacokinetic parameters were calculated using WinNonLin Professional Edition version 2.0.

[2] = Stability in solution (water, 0.1M HCl, 0.1M NaOH, 60° C., HPLC); assay type: physicochemical
Method: In this example the stability of Compound 1 of the invention are compared to those of a close analogue of the prior art, i.e. 1,3-dihydro-1-[2-hydroxy-5-(trifluoromethyl)phenyl]-5-(trifluoromethyl)-2H-Benzimidazol-2-one (i.e. NS1619 described in WO 01/54771) herein designated the Reference Compound.
The stability is determined in neutral (H2O), in basic (0.1M NaOH) and in acidic solution (0.1M HCl).
50 ml of water was added to 27 mg of the reference compound. The compound was only partly dissolved. The suspension was stored at 60° C. and after 24 hours 25 ml of methanol was added in order to completely dissolve reference compound. The solution was stored for further 4 hours and then analysed by HPLC (t=28 hours).
50 ml of 0.1M hydrochloric acid was added to 27 mg of the reference compound. The compound was only partly dissolved. The suspension was stored at 60° C. and after 48 hours 25 ml of methanol was added in order to completely dissolve he reference compound. The solution was stored for further 4. hours and then arialysed by HPLC (t=52 hours).
50 ml of 0.1M sodium hydroxide was added to 24 mg of the reference compound. The compound was completely dissolved. The solution was stored at 60° C. and analysed by HPLC after 2 hours (t=2 hours).
50 ml of water was added to 25 mg of Compound 1. The compound was only partly dissolved. The suspension was stored at 60° C., and after 48 hours, 25 ml of acetonitrile was added in order to completely dissolve Compound 1. The solution was stored for further 24 hours and then analysed by HPLC (t=72 hours).
50 ml of 0.1M hydrochloric acid was added to 27 mg of Compound 1. The compound was only-partly dissolved. The suspension was stored at 60° C., and after 48 hours, 25 ml of acetonitrile was added in order to completely dissolve Compound 1. The solution was stored for further 24 hours and then analysed by HPLC (t=72 hours).
50 ml of 0.1M sodium hydroxide was added to 26 mg of Compound 1. The compound was completely dissolved. The solution was stored at 60° C. and analysed by HPLC after 72 hours (t=72 hours).

[3] = biological target: T1, large conductance calcium-activated potassium (BKCa) channels (Cavia porcellus, UniProt A0A286XP95); settings: guinea pig airways, via activation of BKCa channels; cited from earlier work
T1 construct: sensory fibers innervating the guinea pig airways; host or cells: guinea pig airway sensory nerve fibers (native tissue)

[4] = iv, i.v. 3 mg/kg, time-points 5 min–5 h, read-out: T1/2 (i.v.) (converted)
[5] = po, p.o. 30 mg/kg, i.v. 3 mg/kg
[6] = po, p.o. 30 mg/kg, time-points 3–24 h (Ref. Cpd.), 2–24 h (Cpd. 1), read-out: T1/2 (p.o.) (converted)

T1 sequence (A0A286XP95 1-1133): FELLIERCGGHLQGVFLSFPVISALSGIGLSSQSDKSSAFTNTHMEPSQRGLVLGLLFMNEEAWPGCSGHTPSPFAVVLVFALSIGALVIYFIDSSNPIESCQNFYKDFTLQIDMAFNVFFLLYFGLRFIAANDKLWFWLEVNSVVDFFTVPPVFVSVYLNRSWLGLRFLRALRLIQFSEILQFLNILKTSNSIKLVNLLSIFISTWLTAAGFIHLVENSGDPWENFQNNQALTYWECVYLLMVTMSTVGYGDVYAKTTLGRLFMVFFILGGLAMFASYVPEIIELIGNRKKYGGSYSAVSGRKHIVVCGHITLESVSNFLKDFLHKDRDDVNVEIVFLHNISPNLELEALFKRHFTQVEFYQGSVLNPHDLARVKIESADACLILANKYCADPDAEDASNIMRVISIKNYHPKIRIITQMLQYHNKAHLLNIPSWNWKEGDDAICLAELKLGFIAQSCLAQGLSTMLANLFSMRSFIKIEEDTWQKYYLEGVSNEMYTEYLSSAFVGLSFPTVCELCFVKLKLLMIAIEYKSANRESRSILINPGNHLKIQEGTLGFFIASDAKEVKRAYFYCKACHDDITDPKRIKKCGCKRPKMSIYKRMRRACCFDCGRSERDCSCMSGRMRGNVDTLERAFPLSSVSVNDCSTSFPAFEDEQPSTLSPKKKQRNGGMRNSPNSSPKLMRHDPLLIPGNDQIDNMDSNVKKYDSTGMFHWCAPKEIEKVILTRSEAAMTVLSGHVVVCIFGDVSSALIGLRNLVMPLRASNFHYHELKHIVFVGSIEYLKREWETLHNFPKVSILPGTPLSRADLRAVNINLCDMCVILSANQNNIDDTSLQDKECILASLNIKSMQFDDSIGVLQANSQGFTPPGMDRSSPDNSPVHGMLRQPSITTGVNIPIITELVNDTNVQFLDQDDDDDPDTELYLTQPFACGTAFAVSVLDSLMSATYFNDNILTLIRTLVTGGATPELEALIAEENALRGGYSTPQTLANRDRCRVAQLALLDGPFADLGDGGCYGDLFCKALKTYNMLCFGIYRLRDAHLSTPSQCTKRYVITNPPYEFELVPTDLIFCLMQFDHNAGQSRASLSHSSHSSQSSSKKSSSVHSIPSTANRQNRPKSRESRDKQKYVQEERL

Row | SMILES | half-life [1, 4] | Cmax ([1]; po, p.o. 30 mg/kg) | Tmax ([1]; po, p.o. 30 mg/kg) | bioavailability [1, 5] | half-life [1, 6] | Vd [1] | Time after which Cmax after p.o. administration is reached ([1]; p.o.) | Area% (UV 225 nm) of the Test Substance ([2]; HCl (0.1M), 60° C., Initial) | Area% (UV 225 nm) of the Test Substance ([2]; NaOH (0.1M), 60° C., Initial) | Area% (UV 225 nm) of the Test Substance ([2]; Water, 60° C., Initial) | other results
1 | O=c1[nH]c2cc(Cl)ccc2n1-c1cc(Cl)ccc1O [Compound 1, 5-Chloro-1-(5-chloro-2-hydroxy-phenyl)-1,3-dihydro-benzimidazole-2-one] | 0.8 h | 4200 ng/mL | 0.5 h | 97% | 3.2 h | 1.9 L/kg | 30 min | 99.7% | 99.7% | 99.7% | Absorption compared to the reference compound ([1]; p.o.): faster absorption; Half-life after p.o. administration compared to the reference compound ([1]; p.o.): slightly longer; Area% (UV 225 nm) of the Test Substance ([2]; HCl (0.1M), 60° C., t = 72 hours): 99.6%; Area% (UV 225 nm) of the Test Substance ([2]; NaOH (0.1M), 60° C., t = 72 hours): 99.4%; Area% (UV 225 nm) of the Test Substance ([2]; Water, 60° C., t = 72 hours): 99.6%
2 | O=c1[nH]c2cc(C(F)(F)F)ccc2n1-c1cc(C(F)(F)F)ccc1O [Reference Compound, 1,3-dihydro-1-[2-hydroxy-5-(trifluoromethyl)phenyl]-5-(trifluoromethyl)-2H-Benzimidazol-2-one] | 1.7 h | 10000 ng/mL | 3 h | 145% | 2.5 h | 1.1 L/kg | 180 min | 98.4% | 98.4% | 98.4% | Area% (UV 225 nm) of the Test Substance ([2]; HCl (0.1M), 60° C., t = 52 hours): 98.4%; Area% (UV 225 nm) of the Test Substance ([2]; NaOH (0.1M), 60° C., t = 2 hours): 0.0%; Area% (UV 225 nm) of the Test Substance ([2]; Water, 60° C., t = 28 hours): 96.7%; Stability in 0.1 M NaOH (in words) ([2]; dissolved in 0.1 M NaOH): degrades instantly; Stability in solution (in words) ([2]; neutral, acidic and basic solution, 60° C.): unstable in neutral to basic solutions; Effect on activity of myelinated and non-myelinated airway sensory fibers [3]: inhibits the activity

From patent publication US7244756B2, “Benzimidazol-2-one derivatives and their use” (Poseidon Pharmaceuticals A/S, priority 2002, dated 2007)
